Measurements published in article PMC12261233, “Photoactivatable Cyclometalated Ir(III) Compound Penetrates the Blood-Brain Barrier in 3D Spheroidal and Advanced 3D Organoid Models of Inherently Resistant and Aggressive Brain Tumors” (ACS Pharmacology & Translational Science, 2025).

Test system: hCMEC/D3 cells
Experiment: Iridium uptake in Transwell binary coculture BBB model (ICP-MS), hCMEC/D3
Type: cell-based, human
Details: 10 μM applied apically, 24 h
Protocol: The cellular uptake of anticancer compounds after penetrating the BBB is crucial for their efficacy in treating brain tumors. Understanding the extent of cellular uptake provides insights into the distribution and localization of these compounds within brain tumor cells, making such studies essential for assessing their potential efficacy. We utilized the static Transwell binary coculture BBB model, comprising an […] hCMEC/D3 cell line (representing the BBB) and a glioblastoma U87MG cell line. In this model, hCMEC/D3 cells were seeded on the apical side of the Transwell, while U87MG cells were seeded on the basolateral side. […] After a 24-h incubation, cells were harvested, counted, and the iridium uptake by both cell lines was analyzed using ICP-MS. […]
To confirm that the tested compounds can effectively target and accumulate in the desired U87MG glioblastoma cells, a coculture model was employed to monitor cellular uptake in both hCMEC/D3 cells and U87MG cells. […] The total iridium uptake by U87MG or hCMEC/D3 cells was analyzed 24 h after treatment. In brief, the apical and basolateral parts were separated, and each cellular model was harvested by trypsinization, pelleted by centrifugation, and counted. […] The final iridium content was determined through ICP-MS analysis. The experiments were replicated in triplicate, and the data are expressed as nanograms of iridium per one million cells.

Question: `CCCCn1c2[n+](c3cc(C(=O)OC)ccc31)[Ir-3]13([Cl])([c]4ccccc4-2)[n+]2ccccc2-c2cc(-c4ccc(C)cc4)cc([n+]21)-c1cccc[n+]13.F[P-](F)(F)(F)(F)F` [Ir4] was tested. Which “iridium uptake by hCMEC/D3 cells” value did it give?
Answer: 47 ± 7 ng Ir/10^6 cells
